# Reference: publication PMC8286599 (Gut Pathogens, 2021)
# Like-named read-outs stand apart in the source and are kept apart here.
# Key:
# [1] = system: MDR-S. Typhimurium strains; test: MIC and MBC by broth microdilution with resazurin; assay type: cell-based, Salmonella Typhimurium; settings: poultry droppings isolate
# From the text: (§1) The characterised MDR field strains of EAEC (E1; E2; E3), S. Enteritidis (S1; S2; S3), and S. Typhimurium (ST1; ST2; ST3) maintained in the laboratory repository of Meat Safety Laboratory of ICAR-National Research Centre on Meat, Hyderabad re-validated using PCR assays were used to evaluate the in vitro antibacterial efficacy of phytochemicals. E. coli ATCC 25922 was used as the quality control strain.
# (§2) The antimicrobial efficacy of identified phytochemicals against multi-drug resistant EAEC and NTS strains was determined by estimating the minimum inhibitory concentration (MIC) and minimum bactericidal concentrations (MBC).
# (§3) Subsequent to the incubation period, resazurin dye (0.015 %) was added to all the wells to determine the dye reduction (pink) and thereby the bacterial inhibition.
# [2] = system: MDR-S. Enteritidis strains; test: MIC and MBC by broth microdilution with resazurin; assay type: cell-based, Salmonella Enteritidis; settings: poultry droppings isolate
# From the text: as §1, §2, §3
# [3] = system: MDR-S. Enteritidis strains; test: Stability assay, cationic salts (MIC)
# From the text: (§4) To explore the utility of phytochemicals as therapeutic molecules and their stability, individual phytochemicals were exposed to cationic salts, and different pH levels followed by analysing their MIC and MBC values against test strains as described earlier.
# (§5) Subsequent to exposure to varied conditions, the antimicrobial activity of the phytochemicals was estimated by determining their MIC and MBC values against all the selected MDR strains of EAEC, S. Enteritidis, and S. Typhimurium as described earlier.
# MDR-EAEC strains [4] = test: MIC and MBC by broth microdilution with resazurin; assay type: cell-based, enteroaggregative Escherichia coli; settings: infant diarrhoea isolate
# From the text: as §1, §2, §3
# [5] = system: MDR-S. Typhimurium strains; test: Stability assay, cationic salts (MIC)
# From the text: as §4, §5
# MDR-EAEC strains [6] = test: Stability assay, cationic salts (MIC)
# From the text: as §4, §5
# [7] = system: MDR-S. Enteritidis strains; test: Stability assay, pH (MIC)
# From the text: as §4, §5
# MDR-EAEC strains [8] = test: Stability assay, pH (MIC)
# From the text: as §4, §5
# Haemolytic assay = assay type: cell-based; settings: read-out: Haemolysis; for hemolysis at 0.5 X MIC: 0.50X MIC
# Description: The haemolytic assay of the individual phytochemical was performed by measuring the release of haemoglobin from sheep and human ‘O’ erythrocytes at 540 nm. The percentage of haemolysis was calculated as (Asample – APBS)/ (ATriton−X – APBS) ×100, in which Asample is the absorbance of phytochemical treatment, APBS is the absorbance of untreated control with PBS, and ATriton−X is the absorbance of lysed cells treated with Triton X-100 measured at 540 nm.
# [9] = system: MDR-S. Typhimurium strains; test: Stability assay, pH (MIC)
# From the text: as §4, §5
# [10] = human 'O' erythrocytes, Human RBCs
structure (smiles),measurement,setting,value
"Cc1ccc(C(C)C)c(O)c1 [Thymol, thymol]",MBC,[1]; S. Typhimurium (ST1),0.50 µl/ml
same,MIC,[1]; S. Typhimurium (ST1),0.25 µl/ml
same,MBC,[1]; S. Typhimurium (ST2),0.50 µl/ml
same,MIC,[1]; S. Typhimurium (ST2),0.25 µl/ml
same,MBC,[1]; S. Typhimurium (ST3),0.50 µl/ml
same,MIC,[1]; S. Typhimurium (ST3),0.06 µl/ml
same,MBC,[2]; S. Enteritidis (S1),0.50 µl/ml
same,MIC,[2]; S. Enteritidis (S1),0.12 µl/ml
same,MBC,[2]; S. Enteritidis (S2),0.50 µl/ml
same,MIC,[2]; S. Enteritidis (S2),0.25 µl/ml
same,MBC,[2]; S. Enteritidis (S3),0.50 µl/ml
same,MIC,[2]; S. Enteritidis (S3),0.25 µl/ml
same,MIC with cationic salt,"[3]; 2 mM MgCl2, strain S1",0.5 µl/ml
same,MIC with cationic salt,"[3]; 2 mM MgCl2, strain S2",0.5 µl/ml
same,MIC with cationic salt,"[3]; 2 mM MgCl2, strain S3",0.5 µl/ml
same,MIC with cationic salt,"[3]; 150 mM NaCl, strain S1",0.5 µl/ml
same,MIC with cationic salt,"[3]; 150 mM NaCl, strain S2",0.5 µl/ml
same,MIC with cationic salt,"[3]; 150 mM NaCl, strain S3",1.0 µl/ml
same,MBC,MDR-EAEC strains [4]; EAEC (E1),0.25 µl/ml
same,MIC,MDR-EAEC strains [4]; EAEC (E1),0.25 µl/ml
same,MBC,MDR-EAEC strains [4]; EAEC (E2),0.50 µl/ml
same,MIC,MDR-EAEC strains [4]; EAEC (E2),0.25 µl/ml
same,MBC,MDR-EAEC strains [4]; EAEC (E3),0.25 µl/ml
same,MIC,MDR-EAEC strains [4]; EAEC (E3),0.25 µl/ml
same,MIC with cationic salt,"[5]; 2 mM MgCl2, strain ST1",0.5 µl/ml
same,MIC with cationic salt,"[5]; 2 mM MgCl2, strain ST2",1.0 µl/ml
same,MIC with cationic salt,"[5]; 2 mM MgCl2, strain ST3",0.5 µl/ml
same,MIC with cationic salt,"[5]; 150 mM NaCl, strain ST1",0.5 µl/ml
same,MIC with cationic salt,"[5]; 150 mM NaCl, strain ST2",0.5 µl/ml
same,MIC with cationic salt,"[5]; 150 mM NaCl, strain ST3",0.5 µl/ml
same,MIC with cationic salt,"MDR-EAEC strains [6]; 2 mM MgCl2, strain E1",0.25 µl/ml
same,MIC with cationic salt,"MDR-EAEC strains [6]; 2 mM MgCl2, strain E2",0.25 µl/ml
same,MIC with cationic salt,"MDR-EAEC strains [6]; 2 mM MgCl2, strain E3",0.25 µl/ml
same,Change of MIC values with cationic salts,"MDR-EAEC strains [6]; 150 mM NaCl and 2 mM MgCl2, MDR-EAEC strains",remained almost similar
same,MIC with cationic salt,"MDR-EAEC strains [6]; 150 mM NaCl, strain E1",0.25 µl/ml
same,MIC with cationic salt,"MDR-EAEC strains [6]; 150 mM NaCl, strain E2",0.25 µl/ml
same,MIC with cationic salt,"MDR-EAEC strains [6]; 150 mM NaCl, strain E3",0.25 µl/ml
same,MIC at given pH,"[7]; pH 4, strain S1",0.5 µl/ml
same,MIC at given pH,"[7]; pH 4, strain S2",0.5 µl/ml
same,MIC at given pH,"[7]; pH 4, strain S3",0.5 µl/ml
same,MIC at given pH,"[7]; pH 6, strain S1",0.5 µl/ml
same,MIC at given pH,"[7]; pH 6, strain S2",0.5 µl/ml
same,MIC at given pH,"[7]; pH 6, strain S3",0.5 µl/ml
same,MIC at given pH,"[7]; pH 8, strain S1",0.5 µl/ml
same,MIC at given pH,"[7]; pH 8, strain S2",1.0 µl/ml
same,MIC at given pH,"[7]; pH 8, strain S3",0.5 µl/ml
same,MIC at given pH,"MDR-EAEC strains [8]; pH 4, strain E1",0.25 µl/ml
same,MIC at given pH,"MDR-EAEC strains [8]; pH 4, strain E2",0.25 µl/ml
same,MIC at given pH,"MDR-EAEC strains [8]; pH 4, strain E3",0.25 µl/ml
same,MIC at given pH,"MDR-EAEC strains [8]; pH 6, strain E1",0.25 µl/ml
same,MIC at given pH,"MDR-EAEC strains [8]; pH 6, strain E2",0.25 µl/ml
same,MIC at given pH,"MDR-EAEC strains [8]; pH 6, strain E3",0.25 µl/ml
same,MIC at given pH,"MDR-EAEC strains [8]; pH 8, strain E1",0.5 µl/ml
same,MIC at given pH,"MDR-EAEC strains [8]; pH 8, strain E2",0.25 µl/ml
same,MIC at given pH,"MDR-EAEC strains [8]; pH 8, strain E3",0.5 µl/ml
same,hemolysis at 0.25 X MIC,Haemolytic assay; [10],1.22%
same,hemolysis at 0.5 X MIC,Haemolytic assay; [10],1.91%
same,hemolysis at 1 X MIC,Haemolytic assay; [10],2.86%
same,hemolysis at 2 X MIC,Haemolytic assay; [10],13.5%
same,hemolysis at 4 X MIC,Haemolytic assay; [10],39.4%
same,hemolysis at 8 X MIC,Haemolytic assay; [10],48.5%
same,hemolysis at 0.25 X MIC,"Haemolytic assay; sheep erythrocytes, Sheep RBCs",0%
same,hemolysis at 0.5 X MIC,"Haemolytic assay; sheep erythrocytes, Sheep RBCs",0.22%
same,hemolysis at 1 X MIC,"Haemolytic assay; sheep erythrocytes, Sheep RBCs",1.49%
same,hemolysis at 2 X MIC,"Haemolytic assay; sheep erythrocytes, Sheep RBCs",11.4%
same,hemolysis at 4 X MIC,"Haemolytic assay; sheep erythrocytes, Sheep RBCs",21.6%
same,hemolysis at 8 X MIC,"Haemolytic assay; sheep erythrocytes, Sheep RBCs",47.6%
same,MIC at given pH,"[9]; pH 4, strain ST1",0.5 µl/ml
same,MIC at given pH,"[9]; pH 4, strain ST2",0.5 µl/ml
same,MIC at given pH,"[9]; pH 4, strain ST3",0.5 µl/ml
same,MIC at given pH,"[9]; pH 6, strain ST1",0.5 µl/ml
same,MIC at given pH,"[9]; pH 6, strain ST2",1.0 µl/ml
same,MIC at given pH,"[9]; pH 6, strain ST3",0.5 µl/ml
same,MIC at given pH,"[9]; pH 8, strain ST1",0.5 µl/ml
same,MIC at given pH,"[9]; pH 8, strain ST2",1.0 µl/ml
same,MIC at given pH,"[9]; pH 8, strain ST3",1.0 µl/ml
